Data: publication PMC3265293, “Artificial 64-Residue HIV-1 Enhancer-Binding Peptide Is a Potent Inhibitor of Viral Replication in HIV-1-Infected Cells” (Advances in Virology, 2011)
Where no end group is shown, it is not given here.

Experiments:
CEM-GFP cells = assay: MTT assay of PMA-stimulated CEM-GFP cells; format: cell-based, human; settings: PMA and increasing concentrations of peptide, after 48 h
Experimental: After 48 h, cell growth-inhibitory effects of the peptides and PMA were assessed using the 3-[4,5-dimethylthiazol-2-yl]-2,5-diphenyltetrazolium bromide (MTT) assay.

plasma membrane = test system: plasma membrane; set-up: method as in earlier work; settings: ref earlier work; cited from earlier work

GKTKRPRFGKTKRPRVGQQSIEQLENGKTKRPRFGKTKRPRY [R42]
cytotoxicity (MTT assay) (CEM-GFP cells): not observed
ability to pass the plasma membrane (plasma membrane): not able to pass the plasma membrane
